Structures can show the parent of a compound that is named as a salt.
Target: human LOXL2 (Homo sapiens (Human), UniProt Q9Y4K0)
Experiment: Human LOXL2 Amine Oxidase Activity Assay (Amplex Red fluorescence)
Assay type: biochemical
Settings: concentrated conditioned media from CHO cells stably expressing human LOXL2; 2 h at 37° C. preincubation; DAP substrate; read-out: IC50
Procedure: LOXL2 amine oxidase activity is evaluated by measuring Amplex Red fluorescence using 10-20× concentrated conditioned media from CHO cells stably expressing human LOXL2. To assay for amine oxidase activity, 10 μL of the concentrated conditioned media is incubated with 2 μL of test compound in DMSO and 73 μL Assay Buffer (50 mM Borate Buffer, pH8) for 2 h at 37° C. After the 2 h incubation, 5 μl of 10 mM 1,5-Diaminopentane (DAP) diluted in Assay Buffer and 10 μl of Amplex Red Mix (8.5 μl Assay Buffer+0.5 μl of 10 mM Amplex Red+1 μl of 500 U/ml Horseradish Peroxidase) are added and the plate mixed and immediately placed on the FlexStaion for fluorescence measurements. Fluorescence is read in kinetic mode every 2 min for 1 hour at excitation=544 and emission=590. The amine oxidase activity is calculated from the slope of the linear portion of the curve.

human LOXL2, sequence (Q9Y4K0 26-774): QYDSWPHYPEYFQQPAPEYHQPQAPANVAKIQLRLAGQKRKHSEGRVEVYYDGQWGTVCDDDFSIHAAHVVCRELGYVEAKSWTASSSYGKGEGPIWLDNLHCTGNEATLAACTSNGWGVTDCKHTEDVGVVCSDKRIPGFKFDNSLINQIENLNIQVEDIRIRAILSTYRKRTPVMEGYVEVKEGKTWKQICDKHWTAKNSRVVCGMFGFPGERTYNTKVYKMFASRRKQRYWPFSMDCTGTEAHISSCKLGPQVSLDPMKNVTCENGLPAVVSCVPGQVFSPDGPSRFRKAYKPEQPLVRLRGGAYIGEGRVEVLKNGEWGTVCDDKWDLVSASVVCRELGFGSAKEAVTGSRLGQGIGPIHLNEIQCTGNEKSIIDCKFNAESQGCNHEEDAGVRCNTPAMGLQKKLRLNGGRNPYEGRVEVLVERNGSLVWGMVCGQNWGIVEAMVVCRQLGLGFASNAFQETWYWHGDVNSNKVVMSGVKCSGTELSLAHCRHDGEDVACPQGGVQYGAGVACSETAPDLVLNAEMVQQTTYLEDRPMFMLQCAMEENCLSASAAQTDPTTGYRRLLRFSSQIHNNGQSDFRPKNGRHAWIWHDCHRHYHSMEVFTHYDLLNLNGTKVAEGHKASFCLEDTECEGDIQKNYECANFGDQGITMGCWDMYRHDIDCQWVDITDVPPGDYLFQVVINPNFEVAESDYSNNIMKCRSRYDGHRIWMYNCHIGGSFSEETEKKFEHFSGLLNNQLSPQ

IC50	SMILES
< 300 nM	COCCNC(=O)c1cccc(-c2cc(CN)ccn2)c1 [Compound 1-5, 3-(4-(Aminomethyl)pyridin-2-yl)-N-(2-methoxyethyl)benzamide hydrochloride]
< 300 nM	NCc1ccnc(Oc2cccc(C(=O)NCc3ccc(C(=O)O)cc3)c2)c1 [Compound 1-34, 4-((3-((4-Aminomethyl)pyridin-2-yl)oxy)benzamido)methyl)benzoic acid hydrochloride]
< 300 nM	NCc1ccnc(Oc2cccc3c2ccn3C(=O)Nc2ccccc2)c1 [Compound 2-25, 4-((4-(Aminomethyl)pyridin-2-yl)oxy)-N-phenyl-1H-indole-1-carboxamide hydrochloride]
< 300 nM	NCc1ccnc(Oc2cccc(C(=O)N3CCc4ccccc4C3)c2)c1 [Compound 1-41, (3-((4-(Aminomethyl)pyridin-2-yl)oxy)phenyl)(3,4-dihydroisoquinolin-2(1H)-yl)methanone trifluoroacetate]
< 300 nM	NCc1ccnc(-c2cccc(C(=O)NCc3ccccc3)c2)c1 [Compound 1-8, 3-(4-(Aminomethyl)pyridin-2-yl)-N-benzylbenzamide hydrochloride]
< 300 nM	NCc1ccnc(Oc2cccc(C(=O)NCc3cc4ccccc4s3)c2)c1 [Compound 1-42, 3-((4-(Aminomethyl)pyridin-2-yl)oxy)-N-(benzo[b]thiophen-2-ylmethyl)benzamide hydrochloride]
< 300 nM	NCc1ccnc(Oc2cccc(C(=O)Nc3ccc(F)cc3F)c2)c1 [Compound 1-24, 3-((4-Aminomethyl)pyridin-2-yl)oxy)-N-(2,4-difluorophenyl)benzamide hydrochloride]
< 300 nM	COCCNC(=O)c1cccc(Oc2cc(CN)ccn2)c1 [Compound 1-15, 3-((4-(Aminomethyl)pyridin-2-yl)oxy)-N-(2-methoxyethyl)benzamide hydrochloride]
< 300 nM	NCc1ccnc(Oc2cccc(C(=O)Nc3ccc(F)cc3)c2)c1 [Compound 1-23, 3-((4-Aminomethyl)pyridin-2-yl)oxy)-N-(4-fluorophenyl)benzamide hydrochloride]
< 300 nM	NCc1ccnc(Oc2cccc(C(=O)NCc3ccc(F)cc3F)c2)c1 [Compound 1-30, 3-((4-(Aminomethyl)pyridin-2-yl)oxy)-N-(2,4-difluorobenzyl)benzamide hydrochloride]
< 300 nM	NCc1ccnc(-c2cccc(C(=O)Nc3ccccc3)c2)c1 [Compound 1-7, 3-(4-(Aminomethyl)pyridin-2-yl)-N-phenylbenzamide hydrochloride]
< 300 nM	NCc1ccnc(Oc2cccc3c2c(Br)cn3CCc2ccc(F)cc2)c1 [Compound 2-23, (2-((3-Bromo-1-(4-fluorophenethyl)-1H-indol-4-yl)oxy)pyridin-4-yl)methanamine hydrochloride]
< 300 nM	NCc1ccnc(Oc2cccc3c2ccn3CC(=O)N2CCCc3ccccc32)c1 [Compound 2-31, 2-(4-((4-(Aminomethyl)pyridin-2-yl)oxy)-1H-indol-1-yl)-1-(3,4-dihydroquinolin-1(2H)-yl)ethanone hydrochloride]

The remaining lines, values behind:

SMILES	IC50
Cc1nn(Cc2ccc(F)cc2F)c2cccc(Oc3cc(CN)ccn3)c12 [Compound 2-35, (2-((1-(2,4-Difluorobenzyl)-3-methyl-1H-indazol-4-yl)oxy)pyridin-4-yl)methanamine trifluoroacetate]	< 300 nM
NCc1ccnc(-n2ccnc2)c1 [Compound 4-11, 2-(Imidazol-1-yl)-4-(aminomethyl)pyridine]	< 300 nM
NCc1ccnc(O[C@H]2CCCN(C(=O)c3ccccc3)C2)c1 [Compound 2-38, (S)-(3-((4-(Aminomethyl)pyridin-2-yl)oxy)piperidin-1-yl)(phenyl)methanone trifluoroacetate]	< 300 nM
NCc1ccnc(-c2ccc(C(=O)N3CCC(O)(C(F)(F)F)C3)cc2)c1 (racemic) [Compound 1-2, Racemic-(4-(4-(aminomethyl)pyridin-2-yl)phenyl)(3-hydroxy-3-(trifluoromethyl)pyrrolidin-1-yl)methanone hydrochloride]	< 300 nM
NCc1ccnc(F)c1 [Compound 4-3, 2-Fluoro-4-(aminomethyl)pyridine]	300 to 1000 nM
NCc1ccnc(Oc2cccc3c2ccn3-c2nc3ccc(F)cc3s2)c1 [Compound 2-21, (2-((1-(6-Fluorobenzo[d]thiazol-2-yl)-1H-indol-4-yl)oxy)pyridin-4-yl)methanamine hydrochloride]	< 300 nM
NCc1ccnc(N2CCC(O)(C(F)(F)F)C2)c1 (racemic) [Compound 2-2, Racemic-1-(4-(Aminomethyl)pyridin-2-yl)-3-(trifluoromethyl)pyrrolidin-3-ol]	> 1000 nM
NCc1ccnc(O[C@H]2CCCN(C(=O)Nc3ccccc3)C2)c1 [Compound 2-39, (A)-3-((4-(Aminomethyl)pyridin-2-yl)oxy)-N-phenylpiperidine-1-carboxamide trifluoroacetate]	< 300 nM
NCc1ccnc(-c2cccc(C(=O)N3CCC(O)(C(F)(F)F)C3)c2)c1 (racemic) [Compound 1-6, Racemic-(3-(4-(aminomethyl)pyridin-2-yl)phenyl)(3-hydroxy-3-(trifluoromethyl)pyrrolidin-1-yl)methanone hydrochloride]	< 300 nM
NCc1ccnc(Oc2ccc(F)cc2)c1 [Compound 4-8, 2-(4-Fluorophenoxy)-4-(aminomethyl)pyridine]	< 300 nM
Cc1cn(Cc2ccc(F)cc2F)c2cccc(Oc3cc(CN)ccn3)c12 [Compound 2-12, (2-((1-(2,4-Difluorobenzyl)-3-methyl-1H-indol-4-yl)oxy)pyridin-4-yl)methanamine trifluoroacetate]	< 300 nM
COCCNC(=O)c1cc(CN)ccn1 [Compound 4-13, 4-(Aminomethyl)-N-(2-methoxyethyl)picolinamide hydrochloride]	< 300 nM
NCc1ccnc(OCc2ccccc2)c1 [Compound 4-6, 2-Benzyloxy-4-(aminomethyl)pyridine]	> 1000 nM
NCc1cccnc1F [Compound 4-1, 2-Fluoro-3-(aminomethyl)pyridine]	> 1000 nM

Reference: patent US11358936B2, “Lysyl oxidase-like 2 inhibitors and uses thereof” (PharmAkea, Inc., priority 2015, dated 2022)
